Laboratory results reported in the NIST ThermoML archive (doi:10.1021/je0495942).
“And” between values parts separate entries of the source, which are not always exact repeats. Equal values may be shown once. ± gives the expanded uncertainty stated by the source.

Assay: activity coefficient (dimensionless); of the first substance listed, at infinite dilution; xn = mol fraction of the nth substance listed
Details: 101.33 kPa, Liquid, Chromatography, x1 = 0

| SMILES | activity coefficient (297.85 K) | activity coefficient (298.15 K) | activity coefficient (298.01 K) | activity coefficient (298.03 K) | further results |
| --- | --- | --- | --- | --- | --- |
| CC(=O)C(C)=O [2,3-butanedione] + O |  |  |  |  | activity coefficient (298.1 K): 13.3 and 13.2; activity coefficient (298.17 K): 13.2 and 13.1 |
| CCC(C)=O [butanone] + O | 25.8 ± 1.1 | 26.1 ± 1.2 |  |  |  |
| CSC [2-thiapropane] + O |  |  | 175 and 173 and 171 | 170 and 173 | activity coefficient (298.02 K): 184 and 185; activity coefficient (298.07 K): 178 ± 12 |
| CCCO [propan-1-ol] + O |  |  | 13.4 ± 0.6 | 13.3 ± 0.6 | activity coefficient (298.04 K): 13.3 ± 0.6; activity coefficient (298.1 K): 13.4 and 13.3 |
| CC=O [ethanal] + O |  | 4.14 ± 0.19 |  |  | activity coefficient (298.13 K): 4.13 [middle of 4 runs] |
| CC(C)=O [acetone] + O |  |  | 7.62 and 7.68 | 7.64 and 7.7 | activity coefficient (298.04 K): 7.68 and 7.74; activity coefficient (298.17 K): 7.7 ± 0.34 |

Second part, led by results:

| activity coefficient (297.85 K) | activity coefficient (298.15 K) | activity coefficient (298.01 K) | activity coefficient (298.03 K) | SMILES | further results |
| --- | --- | --- | --- | --- | --- |
|  | 3.77 ± 0.17 |  |  | CCO [ethanol] + O |  |
| 319 ± 14 | 265 ± 12 |  |  | CCCCC(C)=O [2-hexanone] + O |  |
| 129 ± 6 | 148 ± 7 |  |  | CCCC(C)=O [pentan-2-one] + O |  |
